Entries after “also recorded” stand apart in the source; their conditions may differ.
Test system: dcLVs
Conditions: mouse, in vivo

Structure (SMILES)	amount of CSF tracer (in dcLV)	contraction or dilation of dcLVs	contraction of dcLVs
CNC[C@H](O)c1cccc(O)c1 [phenylephrine]	decreased	contracts; also recorded: dosage dependent contraction	
[Cl-].[K+] [potassium chloride]			strongly but transiently contracted
